Assays:
Fibrinogen = target: T1, Fibrinogen (Homo sapiens, UniProt P05106+P08514); assay: Bonding of platelets to fibrinogen; type: binding; details: activated, paraformaldehyde-fixed platelets; plate coated with fibrinogen 5 μg/ml; 37° C. 2 hours; read-out: IC50, inhibition of bonding of platelets to Fibrinogen
T1 construct: endogenous in cells
Procedure: (§1) 50 ng/ml of PGI2 was added to the PRP sample and subjected to centrifugation at 11000 rpm for 2 minutes, by which the platelets were precipitated. The platelet precipitate was washed with 3.8 mM Hepes buffer (pH 7.4, Tyrode-Hepes buffer) containing 0.14 M NaCl, 2.7 mM KCl, 3.7 mM NaH2 PO4, 0.98 mM MgCl2, 1 mg/ml of glucose, 50 ng/ml of PGI2 and 0.35% BSA. 5 μM epinephrine and 30 μM ADP were added in this order and left at room temperature for 5 minutes, by which the platelets were activated. These were then transferred into a 0.05% paraformaldehyde solution and left at room temperature for 30 minutes, whereby the platelets were fixed in the solution. The thus-fixed platelets were suspended in the Hepes buffer at a concentration of 2×10^8 ml^-1.
(§2) Fibrinogen (ex Kabi Co.), fibronectin (ex Sigma Co.) or collagen (ex Horm Co.) was diluted with 0.1 M NaHCO3 to have a concentration of 5 μg/ml, put into each well of a 96-well microplate (ex Nunc Co.) at 200 μl/well and left at 4° C. overnight. Then, the plate was washed with a phosphate buffered saline (PBS) and blocked with 3% BSA at 37° C. for 1 hour. To the plate were added the platelet suspension (final concentration: 10^8 ml^-1) and a varying concentration of a test compound (total amount: 200 μl/well), and the plate was kept at 37° C. for 2 hours. Then, this was washed with PBS, and 2 μg/ml of an anti-CD9 monoclonal antibody was added and kept at 37° C. for 60 minutes. Next, this was treated with a 1/1000 dilution of an enzyme (HRP)-labeled anti-mouse IgG polyclonal antibody at 37 °C. for 60 minutes, and 100 μl/well of an HRP-coloration substrate (0.1 M phosphate buffer with pH 5, containing 0.4 mg/ml of o-phenylenediamine, 0.01% H2 O2 and 0.1 M citric acid) was added and reacted at room temperature for 15 minutes. By adding 20 μl/well of 4.5 M H2 SO4, the reaction was stopped. Then, the absorbance of the thus-reacted sample at 490 nm was measured. […]

Collagen = assay: Bonding of platelets to collagen; type: binding; details: activated, paraformaldehyde-fixed platelets; plate coated with collagen 5 μg/ml; 37° C. 2 hours; read-out: IC50, inhibition of bonding of platelets to Collagen
Procedure: as §1, §2

[1] = system: platelet aggregation in platelet-rich plasma (PRP); assay: Platelet aggregation inhibiting effect (ADP-induced aggregation in platelet-rich plasma); type: cell-based, human (healthy man); details: Homo sapiens, PRP of a healthy person, ADP final concentration 3 μg/ml, 37° C., read-out: IC50 (concentration needed to inhibit the platelet aggregation by 50%)
Procedure: Blood was collected from the elbow vein of a healthy person, to which was added 3.8% sodium citrate of 1/10 times by volume the blood. This was centrifuged at 1000 rpm (150 g) for 10 minutes, and the resulting supernatant of a platelet-rich plasma (PRP) was collected. 2 μl of a solution of a test compound was added to 200 μl of the PRP and kept at 37° C. for 2 minutes while stirring at 1000 rpm. Then, 22 μl of a platelet aggregation promoter of ADP (adenosine diphosphate, final concentration: 3 μg/ml) was added. The degree of platelet aggregation of the sample was measured by colorimetry, using a hematracer (ex Niko Bioscience Co.). The platelet aggregation inhibiting activity of the test compound was represented by IC50, which indicates the concentration of the compound that was needed to inhibit the platelet aggregation by 50%.

Fibronectin = assay: Bonding of platelets to fibronectin; type: binding; details: activated, paraformaldehyde-fixed platelets; plate coated with fibronectin 5 μg/ml; 37° C. 2 hours; read-out: IC50, inhibition of bonding of platelets to Fibronectin
Procedure: as §1, §2

T1 sequence (P08514 32-887 limits assumed): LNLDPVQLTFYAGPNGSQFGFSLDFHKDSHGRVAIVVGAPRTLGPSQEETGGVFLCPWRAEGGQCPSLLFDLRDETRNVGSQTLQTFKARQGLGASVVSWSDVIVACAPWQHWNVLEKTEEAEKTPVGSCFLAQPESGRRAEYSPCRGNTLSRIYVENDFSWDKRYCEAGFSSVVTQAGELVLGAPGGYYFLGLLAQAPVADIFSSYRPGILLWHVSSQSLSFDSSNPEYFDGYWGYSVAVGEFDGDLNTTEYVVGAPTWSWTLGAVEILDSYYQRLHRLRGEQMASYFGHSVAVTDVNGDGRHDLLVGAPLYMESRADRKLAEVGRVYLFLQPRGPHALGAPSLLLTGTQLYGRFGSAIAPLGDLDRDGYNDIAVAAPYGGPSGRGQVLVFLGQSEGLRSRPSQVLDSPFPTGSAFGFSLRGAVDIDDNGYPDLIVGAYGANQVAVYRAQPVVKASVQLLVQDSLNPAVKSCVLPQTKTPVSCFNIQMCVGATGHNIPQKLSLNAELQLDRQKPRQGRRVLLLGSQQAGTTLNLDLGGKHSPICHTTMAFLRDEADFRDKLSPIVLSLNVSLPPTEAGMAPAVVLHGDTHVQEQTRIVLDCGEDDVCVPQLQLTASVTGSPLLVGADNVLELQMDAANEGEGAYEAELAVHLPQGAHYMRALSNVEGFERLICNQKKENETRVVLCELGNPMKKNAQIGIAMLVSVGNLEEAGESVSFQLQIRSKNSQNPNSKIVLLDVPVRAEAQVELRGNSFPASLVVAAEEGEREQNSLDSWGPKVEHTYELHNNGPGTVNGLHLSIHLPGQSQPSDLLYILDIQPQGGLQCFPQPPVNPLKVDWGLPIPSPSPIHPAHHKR
T1 sequence (P08514 891-1039 limits assumed): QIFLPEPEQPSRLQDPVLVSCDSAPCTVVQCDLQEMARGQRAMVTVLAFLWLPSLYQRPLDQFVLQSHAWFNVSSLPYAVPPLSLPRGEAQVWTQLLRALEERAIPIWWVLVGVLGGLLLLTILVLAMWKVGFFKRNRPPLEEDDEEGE
T1 sequence (P05106 27-788): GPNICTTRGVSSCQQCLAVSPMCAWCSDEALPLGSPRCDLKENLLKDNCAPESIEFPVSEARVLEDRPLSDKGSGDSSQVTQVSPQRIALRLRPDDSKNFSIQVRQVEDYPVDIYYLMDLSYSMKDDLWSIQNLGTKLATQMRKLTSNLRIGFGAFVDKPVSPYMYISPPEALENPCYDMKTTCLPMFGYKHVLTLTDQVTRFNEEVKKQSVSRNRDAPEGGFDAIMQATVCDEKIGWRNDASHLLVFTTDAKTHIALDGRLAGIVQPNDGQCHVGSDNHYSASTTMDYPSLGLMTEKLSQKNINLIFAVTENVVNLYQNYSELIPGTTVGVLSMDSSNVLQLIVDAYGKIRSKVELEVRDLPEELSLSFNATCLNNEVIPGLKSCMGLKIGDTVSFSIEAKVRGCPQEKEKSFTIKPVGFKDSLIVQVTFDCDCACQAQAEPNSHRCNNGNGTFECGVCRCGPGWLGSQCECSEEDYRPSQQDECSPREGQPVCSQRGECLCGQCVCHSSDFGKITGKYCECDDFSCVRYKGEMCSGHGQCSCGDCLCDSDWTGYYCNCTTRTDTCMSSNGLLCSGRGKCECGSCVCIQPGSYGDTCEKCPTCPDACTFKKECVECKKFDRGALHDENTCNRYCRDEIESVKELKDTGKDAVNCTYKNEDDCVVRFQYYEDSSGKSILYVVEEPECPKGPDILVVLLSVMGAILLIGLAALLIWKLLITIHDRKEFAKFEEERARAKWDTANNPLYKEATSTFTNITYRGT

Structure (SMILES) | IC50 (Fibrinogen) [nM] | IC50 (Collagen) [nM] | IC50 [1] [nM] | IC50 (Fibronectin) [nM]
COc1ccc(C[C@H](NC(=O)CCC2CCNCC2)C(=O)N2CCC(OCC(=O)O)CC2)cc1 [Compound (12)] | 450 | > 100000 | 60 | 67000
COc1ccc(C[C@H](NC(=O)COC2CCNCC2)C(=O)N2CCC(OCC(=O)O)CC2)cc1 [Compound (15)] | 250 | > 100000 | 48 | 240
COc1ccc(C[C@H](NC(=O)CCCC2CCNCC2)C(=O)N2CCC(OCC(=O)O)CC2)cc1 [Compound (18), (1-(N-(4-(4-piperidyl)butanoyl)-O-methyl-L-tyrosyl)-4-piperidyloxy)acetic acid] | 63000 | > 100000 | 680 | 7200
O=C(O)COC1CCN(C(=O)[C@H](Cc2ccc(O)cc2)NC(=O)COC2CCNCC2)CC1 [Compound (19), (1-(N-(4-piperidyloxyacetyl)-L-tyrosyl)-4-piperidyloxy)acetic acid] | – | – | 61 | –
O=C(O)COC1CCN(C(=O)[C@H](Cc2ccc(O)cc2)NC(=O)CCC2CCNCC2)CC1 [Compound (20), (1-(N-(3-(4-piperidyl)propanoyl)-L-tyrosyl)-4piperidyloxy)acetic acid] | – | – | 135 | –
O=C(O)COC1CCN(C(=O)[C@H](Cc2ccccc2)NC(=O)CCC2CCNCC2)CC1 [Compound (21), (1-(N-(3-(4-piperidyl)propanoyl)-L-phenylalanyl)-4-piperidyloxy)acetic acid] | – | – | 917 | –
CC(C)[C@H](NC(=O)CCC1CCNCC1)C(=O)N1CCC(OCC(=O)O)CC1 [Compound (22), (1-(N-(3-(4-piperidyl)propanoyl)-L-valyl)-4-piperidyloxy)acetic acid] | – | – | 1100 | –
C[C@H](NC(=O)CCC1CCNCC1)C(=O)N1CCC(OCC(=O)O)CC1 [Compound (23), (1-(N-(3-(4-piperidyl)propanoyl)-L-alanyl)-4-piperidyloxy)acetic acid] | – | – | 389 | –
O=C(O)COC1CCN(C(=O)CNC(=O)CCC2CCNCC2)CC1 [Compound (24)] | – | – | 2380 | –
O=C(O)COC1CCN(C(=O)[C@@H]2CCCN2C(=O)CCC2CCNCC2)CC1 [Compound (25), (1-(N-(3-(4-piperidyl)propanoyl)-L-prolyl)-4-piperidyloxy)acetic acid] | – | – | 316 | –
CC(C)C[C@H](NC(=O)CCC1CCNCC1)C(=O)N1CCC(OCC(=O)O)CC1 [Compound (26), (1-(N-(3-(4-piperidyl)propanoyl)-L-leucyl)-4-piperidyloxy)acetic acid] | – | – | 929 | –
CC[C@H](C)[C@H](NC(=O)CCC1CCNCC1)C(=O)N1CCC(OCC(=O)O)CC1 [Compound (27), (1-(N-(3-(4-piperidyl)propanoyl)-L-isoleucyl)-4-piperidyloxy)acetic acid] | – | – | 507 | –
O=C(O)COC1CCN(C(=O)[C@H](Cc2c[nH]c3ccccc23)NC(=O)CCC2CCNCC2)CC1 [Compound (28), (1-(N-(3-(4-piperidyl)propanoyl)-L-tryptophyl)-4-piperidyloxy)acetic acid] | – | – | 438 | –
O=C(O)COC1CCN(C(=O)[C@H](CO)NC(=O)CCC2CCNCC2)CC1 [Compound (29), (1-(N-(3-(4-piperidyl)propanoyl)-L-seryl)-4-piperidyloxy)acetic acid] | – | – | 886 | –
COc1ccc(C[C@H](NC(=O)CCC2CCNCC2)C(=O)N2CCC(CCC(=O)O)CC2)cc1 [Compound (35), 3-(1-(N-(3-(4-piperidyl)propanoyl)-O-methyl-L-tyrosyl)-4-piperidyl)propanoic acid] | – | – | 712 | –
COc1ccc(C[C@H](NC(=O)COC2CCNCC2)C(=O)N2CCC(CCC(=O)O)CC2)cc1 [Compound (37)] | – | – | 117 | –
O=C(O)CCC1CCN(C(=O)[C@H](Cc2ccc(O)cc2)NC(=O)CCC2CCNCC2)CC1 [Compound (42), 3-(1-(N-(3-(4-piperidyl)propanoyl)-L-tyrosyl)-4-piperidyl)propanoic acid] | – | – | 1730 | –
O=C(O)CCC1CCN(C(=O)[C@H](Cc2ccc(O)cc2)NC(=O)COC2CCNCC2)CC1 [Compound (44), 3-(1-(N-(4-piperidyloxyacetyl)-L-tyrosyl)-4-piperidyl)propanoic acid] | – | – | 630 | –
